According to patent US20250154163A1, “Pyrimidinone-Containing 17-Beta-Hydroxysteroid Dehydrogenase Type 13 Inhibitors” (ENANTA PHARMACEUTICALS, INC., priority 2023, published 2025):

Key:
[1] = tested on: human precision cut lung slices from a donor with idiopathic pulmonary fibrosis; assay: Human precision cut lung slice (PCLS) culture, donor with idiopathic pulmonary fibrosis; type: cell-based; details: IPF donor PCLS; FIG. 2b
Description: Human PCLS were generated from lung explants of patients with pulmonary fibrosis (donor ID #221028) or normal donor (donor ID #220730). Cryopreserved hPCLSs were obtained from Institute for In Vitro Sciences (IIVS) and maintained with air-liquid interface culture approach under 37° C., 5% CO2 and 95% humidity. hPCLS were cultured in DMEM-F12 (Invitrogen, Cat No. 11330032) containing 0.2% primocin (Invivogen, Cat No. ant-pm-1) and 1% insulin-transferrin-selenium (ITS-G; Invitrogen, Cat No. 41400045), after initial acclimation in acclimation media, including culture media supplemented with 1% antibiotic antimycotic solution (Invitrogen, Cat No. 15240062), 2 mM Hydrocortisone (Millipore Sigma,) and 5 mg/ml 2-phospho-L-abscorbic acid trisodium salt (Millipore Sigma, Cat No. 49752-10G) for 3 days. Slices of tissue were flatly grown in the tissue culture inserts with 0.4 μm pores of a 12-well plate (StemCell Technologies, Cat No. 1001027), supplemented with 100 μl culture media in the apical side containing PCLSs, and 900 μL culture media in the basal compartment. Media were changed every 48 hours. hPCLS were treated and randomly assigned in replicates of 6-8 per condition 7 days after recovery from cryopreservation. […] IPF donor PCLS were collected at day 8 for subsequent RNA isolation and gene expression quantification. […]

[2] = tested on: C57BL/6J mice fed CDAA-HF; assay: Fibrotic markers in livers of mice fed choline deficient high fat (CDAA-HF) diet; type: in vivo, mouse; details: 20, 60 and 200 mg/kg oral gavage daily, final week of 4 weeks CDAA-HF, *p<0.05 vs vehicle
Description: The choline deficient amino acid defined diet (CDAA) is a well-characterized model of […] associated liver inflammation and fibrosis. The CDAA-HF mouse model is commonly used to preclinically evaluate potential therapeutic targets for non-alcoholic steatohepatitis (NASH). To investigate the effect of Compound 26 (Example 26; 20, 60, and 200 mg/kg, oral gavage, daily) on fibrotic gene and protein parameters, 10 week-old male C57BL/6J mice were fed CDAA-HF (choline deficient, L-amino acid defined, high fat diet; A16092201) for 4 weeks, with Compound 26 treatment only during the final week of the study. On the last day of the study, mice were euthanized by CO2 asphyxiation for tissue collection, and blood was collected by cardiac puncture. Livers were rapidly removed and frozen in liquid nitrogen for downstream mRNA and protein isolation. […] Statistical analysis was performed with One Way ANOVA. *p<0.05 vs vehicle treated (FIG. 1). Col1a1=Collagen; TGFB2=transforming growth factor beta 2. All procedures performed on animals were in accordance with regulations and established guidelines and were reviewed and approved by an Institutional Animal Care and Use Committee or through an ethical review process.

Compound: COc1ccc(-c2nc3sc4c(O)c(Cl)ccc4c3c(=O)n2Cc2cnco2)c(C2CC2)c1 [Example 26, 7-chloro-2-(2-cyclopropyl-4-methoxyphenyl)-8-hydroxy-3-(oxazol-5-ylmethyl)benzo[4,5]thieno[2,3-d]pyrimidin-4(3H)-one]
- secreted fibronectin (lung fibronectin content) [1]: decreased
- liver collagen (Col1a1) mRNA ([2]; FIG. 1a): significantly decreases
- liver TGFB2 (fibrotic cytokine) ([2]; FIG. 1b): significantly decreases
- liver fibronectin (fibroblast activation marker) ([2]; FIG. 1c): significantly decreases
